According to PubChem BioAssay (NCI):
“And” between values parts separate entries of the source, which are not always exact repeats. Equal values may be shown once.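 Each compound was tested at five concentrations against cells in 96-well plates for 48 hours. GI50 = concentration required for 50% inhibition of growth. The concentration for full growth arrest is given as TGI.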

Assays:
Assay in all cases: NCI tumour cell line growth inhibition, 48 h
786-0 renal = test system: 786-0 renal
A549 NSCLC = test system: A549 NSCLC
ACHN renal = test system: ACHN renal
BT-549 breast = test system: BT-549 breast
CCRF-CEM leukemia = test system: CCRF-CEM leukemia
DLD-1 colon = test system: DLD-1 colon
DMS 114 small cell lung = test system: DMS 114 small cell lung
DMS 273 small cell lung = test system: DMS 273 small cell lung
DU-145 prostate = test system: DU-145 prostate
HCC-2998 colon = test system: HCC-2998 colon
HCT-116 colon = test system: HCT-116 colon
HL-60(TB) leukemia = test system: HL-60(TB) leukemia
HOP-18 NSCLC = test system: HOP-18 NSCLC
HOP-62 NSCLC = test system: HOP-62 NSCLC
HOP-92 NSCLC = test system: HOP-92 NSCLC
HS 578T breast = test system: HS 578T breast
HT29 colon = test system: HT29 colon
KM12 colon = test system: KM12 colon
KM20L2 colon = test system: KM20L2 colon
LOX IMVI melanoma = test system: LOX IMVI melanoma
LXFL 529 NSCLC = test system: LXFL 529 NSCLC
M14 melanoma = test system: M14 melanoma
M19-MEL melanoma = test system: M19-MEL melanoma
MCF7 breast = test system: MCF7 breast
MDA-MB-231 breast = test system: MDA-MB-231 breast
MDA-MB-435 = test system: MDA-MB-435
MDA-N = test system: MDA-N
MOLT-4 leukemia = test system: MOLT-4 leukemia
NCI-H23 lung = test system: NCI-H23 lung
NCI-H460 lung = test system: NCI-H460 lung
NCI-H522 lung = test system: NCI-H522 lung
OVCAR-8 ovarian = test system: OVCAR-8 ovarian
RPMI-8226 leukemia = test system: RPMI-8226 leukemia
RXF 393 renal = test system: RXF 393 renal
SF-268 CNS = test system: SF-268 CNS
SF-295 CNS = test system: SF-295 CNS
SK-MEL-2 melanoma = test system: SK-MEL-2 melanoma
SNB-78 CNS = test system: SNB-78 CNS
SR leukemia = test system: SR leukemia
SW-620 colon = test system: SW-620 colon
T-47D breast = test system: T-47D breast
U251 CNS = test system: U251 CNS
UACC-62 melanoma = test system: UACC-62 melanoma
XF 498 CNS = test system: XF 498 CNS
A498 renal = test system: A498 renal
CAKI-1 renal = test system: CAKI-1 renal
COLO 205 colon = test system: COLO 205 colon
EKVX NSCLC = test system: EKVX NSCLC
IGROV1 ovarian = test system: IGROV1 ovarian
K-562 leukemia = test system: K-562 leukemia
MALME-3M melanoma = test system: MALME-3M melanoma
NCI-H226 lung = test system: NCI-H226 lung
OVCAR-3 ovarian = test system: OVCAR-3 ovarian
OVCAR-4 ovarian = test system: OVCAR-4 ovarian
OVCAR-5 ovarian = test system: OVCAR-5 ovarian
SF-539 CNS = test system: SF-539 CNS
SK-MEL-28 melanoma = test system: SK-MEL-28 melanoma
SK-OV-3 ovarian = test system: SK-OV-3 ovarian
SN12C renal = test system: SN12C renal
SNB-19 CNS = test system: SNB-19 CNS
SNB-75 CNS = test system: SNB-75 CNS
TK-10 renal = test system: TK-10 renal
UACC-257 melanoma = test system: UACC-257 melanoma
UO-31 renal = test system: UO-31 renal

CCN(CC)CCN1C(=O)c2c(c3c4cccc(Cl)c4n(C4OC(CO)C(OC)C(O)C4O)c3c3[nH]c4c(Cl)cccc4c23)C1=O (configuration not stated)
GI50 (786-0 renal): < 0.1 nM
GI50 (A549 NSCLC): < 0.1 nM
GI50 (ACHN renal): < 0.1 nM
TGI (BT-549 breast): 1660 nM
GI50 (CCRF-CEM leukemia): < 0.1 nM
GI50 (DLD-1 colon): 0.403 nM
GI50 (DMS 114 small cell lung): < 0.1 nM
GI50 (DMS 273 small cell lung): < 0.1 nM
TGI (DU-145 prostate): 84.5 nM
GI50 (HCC-2998 colon): 0.104 nM and < 29.9 nM and < 10 nM
GI50 (HCT-116 colon): < 0.1 nM
GI50 (HL-60(TB) leukemia): 309 nM and 36.6 nM
GI50 (HOP-18 NSCLC): 102 nM
GI50 (HOP-62 NSCLC): 0.125 nM and < 31.8 nM and < 10 nM
GI50 (HOP-92 NSCLC): 0.362 nM
TGI (HS 578T breast): 1990 nM
GI50 (HT29 colon): < 0.1 nM
GI50 (KM12 colon): 0.316 nM and < 23.1 nM and < 10 nM
GI50 (KM20L2 colon): 0.446 nM
TGI (KM20L2 colon): 10.3 nM
GI50 (LOX IMVI melanoma): < 0.1 nM
GI50 (LXFL 529 NSCLC): 0.116 nM
GI50 (M14 melanoma): 0.565 nM and < 36.8 nM and < 14.5 nM
GI50 (M19-MEL melanoma): 0.144 nM
TGI (MCF7 breast): 199 nM
TGI (MDA-MB-231 breast): 1120 nM
TGI (MDA-MB-435): 217 nM
TGI (MDA-N): 210 nM
GI50 (MOLT-4 leukemia): < 0.1 nM
GI50 (NCI-H23 lung): 0.398 nM and < 32.9 nM and < 10 nM
GI50 (NCI-H460 lung): < 0.1 nM
GI50 (NCI-H522 lung): < 10 nM
TGI (NCI-H522 lung): 210 nM and 146 nM
GI50 (OVCAR-8 ovarian): < 0.1 nM
GI50 (RPMI-8226 leukemia): 0.139 nM and < 26.8 nM
TGI (RPMI-8226 leukemia): 3.06 nM
GI50 (RXF 393 renal): < 0.1 nM
GI50 (SF-268 CNS): < 0.1 nM
GI50 (SF-295 CNS): 0.169 nM
GI50 (SK-MEL-2 melanoma): 1.03 nM and < 10 nM
GI50 (SNB-78 CNS): 47.5 nM
GI50 (SR leukemia): < 0.1 nM
GI50 (SW-620 colon): < 0.1 nM
TGI (T-47D breast): 2260 nM
GI50 (U251 CNS): < 0.1 nM
GI50 (UACC-62 melanoma): 0.111 nM and < 26.4 nM and < 10 nM
TGI (XF 498 CNS): 284 nM

Cc1c(C(=O)/C=C/c2ccc([N+](=O)[O-])cc2)[n+](=O)c2ccccc2n1[O-]
TGI (786-0 renal): > 100000 nM
TGI (A498 renal): > 100000 nM
TGI (A549 NSCLC): > 100000 nM
TGI (ACHN renal): > 100000 nM
TGI (CAKI-1 renal): > 100000 nM
TGI (CCRF-CEM leukemia): 99200 nM
TGI (COLO 205 colon): > 100000 nM
TGI (DLD-1 colon): > 100000 nM
TGI (DMS 114 small cell lung): > 100000 nM
TGI (DMS 273 small cell lung): > 100000 nM
TGI (EKVX NSCLC): > 100000 nM
TGI (HCC-2998 colon): > 100000 nM
TGI (HCT-116 colon): > 100000 nM
TGI (HL-60(TB) leukemia): 2890 nM
TGI (HOP-18 NSCLC): > 100000 nM
TGI (HOP-62 NSCLC): > 100000 nM
TGI (HOP-92 NSCLC): > 100000 nM
TGI (HT29 colon): > 100000 nM
TGI (IGROV1 ovarian): > 100000 nM
TGI (K-562 leukemia): > 100000 nM
TGI (KM12 colon): > 100000 nM
TGI (KM20L2 colon): > 100000 nM
TGI (LOX IMVI melanoma): > 100000 nM
TGI (LXFL 529 NSCLC): > 100000 nM
TGI (M14 melanoma): > 100000 nM
TGI (M19-MEL melanoma): > 100000 nM
TGI (MALME-3M melanoma): > 100000 nM
TGI (MOLT-4 leukemia): 82200 nM
TGI (NCI-H226 lung): > 100000 nM
TGI (NCI-H23 lung): 86700 nM
TGI (NCI-H460 lung): > 100000 nM
TGI (NCI-H522 lung): 53600 nM
TGI (OVCAR-3 ovarian): > 100000 nM
TGI (OVCAR-4 ovarian): > 100000 nM
TGI (OVCAR-5 ovarian): > 100000 nM
TGI (OVCAR-8 ovarian): > 100000 nM
TGI (RPMI-8226 leukemia): > 100000 nM
TGI (RXF 393 renal): > 100000 nM
TGI (SF-268 CNS): > 100000 nM
TGI (SF-295 CNS): > 100000 nM
TGI (SF-539 CNS): > 100000 nM
TGI (SK-MEL-28 melanoma): > 100000 nM
TGI (SK-OV-3 ovarian): > 100000 nM
TGI (SN12C renal): > 100000 nM
TGI (SNB-19 CNS): > 100000 nM
TGI (SNB-75 CNS): > 100000 nM
TGI (SNB-78 CNS): > 100000 nM
TGI (SR leukemia): > 100000 nM
TGI (SW-620 colon): > 100000 nM
TGI (TK-10 renal): > 100000 nM
TGI (U251 CNS): > 100000 nM
TGI (UACC-257 melanoma): > 100000 nM
TGI (UACC-62 melanoma): > 100000 nM
TGI (UO-31 renal): > 100000 nM
TGI (XF 498 CNS): > 100000 nM
